Patent US7118895B2, “Process for producing aglycon by using diglycosidase and flavor-improved food containing the aglycon and converting agent to be used in the process” (Amano Enzyme Inc., priority 2000, dated 2006)

Tested on: Crude diglycosidase
Experiment: Examination of pH in the conversion into isoflavone aglycons by diglycosidase using soybean materials
Format: biochemical, Penicillium multicolor IAM7153
Set-up: Decomposition efficiency of genistin family in soymilk / Decomposition efficiency of genistin family in defatted soybean / Decomposition efficiency of daidzin family in defatted soybean: concentration or dose not given beside the values
Settings: for Decomposition efficiency of genistin family in roasted soy flour: 55° C.
How it was run: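 Conversion of glycosides to isoflavone aglycons was followed by HPLC after crude diglycosidase (1.88 AU/mL enzyme solution) acted at 55° C for up to 6 h on four soy materials, 50 mg each, held at pH 2–11.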

[1] = pH4.8, heat treatment of enzyme: no, reaction time 0 h
[2] = pH4.8, heat treatment of enzyme: no, reaction time 1 h
[3] = pH4.8, heat treatment of enzyme: no, reaction time 3 h
[4] = pH4.8, heat treatment of enzyme: no, reaction time 6 h
[5] = pH4.8, heat treatment of enzyme: yes, reaction time 6 h
[6] = pH6.6, heat treatment of enzyme: no, reaction time 0 h
[7] = pH6.6, heat treatment of enzyme: no, reaction time 1 h
[8] = pH6.6, heat treatment of enzyme: no, reaction time 3 h
[9] = pH6.6, heat treatment of enzyme: no, reaction time 6 h
[10] = pH6.6, heat treatment of enzyme: yes, reaction time 6 h

CC(=O)OC[C@H]1O[C@@H](Oc2cc(O)c3c(=O)c(-c4ccc(O)cc4)coc3c2)[C@H](O)[C@@H](O)[C@@H]1O [acetylgenistin, 6″-O-acetylgenistin]
Decomposition efficiency of genistin family in concentrated soybean protein (pH1.6, heat treatment of enzyme: no, reaction time 0 h): 42.5% | Decomposition efficiency of genistin family in concentrated soybean protein (pH1.6, heat treatment of enzyme: no, reaction time 1 h): 42.2% | Decomposition efficiency of genistin family in concentrated soybean protein (pH1.6, heat treatment of enzyme: no, reaction time 3 h): 40.6% | Decomposition efficiency of genistin family in concentrated soybean protein (pH1.6, heat treatment of enzyme: no, reaction time 6 h): 38.9% | Decomposition efficiency of genistin family in concentrated soybean protein (pH1.6, heat treatment of enzyme: yes, reaction time 6 h): 37.7% | Decomposition efficiency of genistin family in roasted soy flour (pH2, heat treatment of enzyme no, reaction time 0 h): 45.2 | Decomposition efficiency of genistin family in roasted soy flour (pH2, heat treatment of enzyme no, reaction time 1 h): 45.0 | Decomposition efficiency of genistin family in roasted soy flour (pH2, heat treatment of enzyme no, reaction time 3 h): 43.1 | Decomposition efficiency of genistin family in roasted soy flour (pH2, heat treatment of enzyme no, reaction time 6 h): 40.7 | Decomposition efficiency of genistin family in roasted soy flour (pH2, heat treatment of enzyme yes, reaction time 6 h): 41.2 | Decomposition efficiency of genistin family in soymilk (pH2.3, heat treatment of enzyme: no, reaction time 0 h): 0.6% | Decomposition efficiency of genistin family in soymilk (pH2.3, heat treatment of enzyme: no, reaction time 1 h): 0.7% | Decomposition efficiency of genistin family in soymilk (pH2.3, heat treatment of enzyme: no, reaction time 3 h): 0.8% | Decomposition efficiency of genistin family in soymilk (pH2.3, heat treatment of enzyme: no, reaction time 6 h): 0.6% | Decomposition efficiency of genistin family in soymilk (pH2.3, heat treatment of enzyme: yes, reaction time 6 h): 0.6% | Decomposition efficiency of genistin family in defatted soybean (pH2.6, heat treatment of enzyme: no, reaction time 0 h): 1.8% | Decomposition efficiency of genistin family in defatted soybean (pH2.6, heat treatment of enzyme: no, reaction time 1 h): 1.7% | Decomposition efficiency of genistin family in defatted soybean (pH2.6, heat treatment of enzyme: no, reaction time 3 h): 1.7% | Decomposition efficiency of genistin family in defatted soybean (pH2.6, heat treatment of enzyme: no, reaction time 6 h): 1.9% | Decomposition efficiency of genistin family in defatted soybean (pH2.6, heat treatment of enzyme: yes, reaction time 6 h): 1.6% | Decomposition efficiency of genistin family in concentrated soybean protein (pH2.7, heat treatment of enzyme: no, reaction time 0 h): 42.5% | Decomposition efficiency of genistin family in concentrated soybean protein (pH2.7, heat treatment of enzyme: no, reaction time 1 h): 44.3% | Decomposition efficiency of genistin family in concentrated soybean protein (pH2.7, heat treatment of enzyme: no, reaction time 3 h): 43.7% | Decomposition efficiency of genistin family in concentrated soybean protein (pH2.7, heat treatment of enzyme: no, reaction time 6 h): 44.0% | Decomposition efficiency of genistin family in concentrated soybean protein (pH2.7, heat treatment of enzyme: yes, reaction time 6 h): 42.5% | Decomposition efficiency of genistin family in roasted soy flour (pH3, heat treatment of enzyme no, reaction time 0 h): 45.2 | Decomposition efficiency of genistin family in roasted soy flour (pH3, heat treatment of enzyme no, reaction time 1 h): 45.2 | Decomposition efficiency of genistin family in roasted soy flour (pH3, heat treatment of enzyme no, reaction time 3 h): 41.9 | Decomposition efficiency of genistin family in roasted soy flour (pH3, heat treatment of enzyme no, reaction time 6 h): 43.5 | Decomposition efficiency of genistin family in roasted soy flour (pH3, heat treatment of enzyme yes, reaction time 6 h): 45.1 | Decomposition efficiency of genistin family in defatted soybean (pH3.4, heat treatment of enzyme: no, reaction time 0 h): 1.8% | Decomposition efficiency of genistin family in defatted soybean (pH3.4, heat treatment of enzyme: no, reaction time 1 h): 1.5% | Decomposition efficiency of genistin family in defatted soybean (pH3.4, heat treatment of enzyme: no, reaction time 3 h): 1.1% | Decomposition efficiency of genistin family in defatted soybean (pH3.4, heat treatment of enzyme: no, reaction time 6 h): 0.8% | Decomposition efficiency of genistin family in defatted soybean (pH3.4, heat treatment of enzyme: yes, reaction time 6 h): 1.8% | Decomposition efficiency of genistin family in soymilk (pH3.5, heat treatment of enzyme: no, reaction time 0 h): 0.6% | Decomposition efficiency of genistin family in soymilk (pH3.5, heat treatment of enzyme: no, reaction time 1 h): not detected | Decomposition efficiency of genistin family in soymilk (pH3.5, heat treatment of enzyme: no, reaction time 3 h): not detected | Decomposition efficiency of genistin family in soymilk (pH3.5, heat treatment of enzyme: no, reaction time 6 h): not detected | Decomposition efficiency of genistin family in soymilk (pH3.5, heat treatment of enzyme: yes, reaction time 6 h): 0.5% | Decomposition efficiency of genistin family in concentrated soybean protein (pH3.7, heat treatment of enzyme: no, reaction time 0 h): 43.1% | Decomposition efficiency of genistin family in concentrated soybean protein (pH3.7, heat treatment of enzyme: no, reaction time 1 h): 43.5% | Decomposition efficiency of genistin family in concentrated soybean protein (pH3.7, heat treatment of enzyme: no, reaction time 3 h): 36.9% | Decomposition efficiency of genistin family in concentrated soybean protein (pH3.7, heat treatment of enzyme: no, reaction time 6 h): 30.7% | Decomposition efficiency of genistin family in concentrated soybean protein (pH3.7, heat treatment of enzyme: yes, reaction time 6 h): 43.0% | Decomposition efficiency of genistin family in roasted soy flour (pH4, heat treatment of enzyme no, reaction time 0 h): 45.4 | Decomposition efficiency of genistin family in roasted soy flour (pH4, heat treatment of enzyme no, reaction time 1 h): 36.3 | Decomposition efficiency of genistin family in roasted soy flour (pH4, heat treatment of enzyme no, reaction time 3 h): 23.4 | Decomposition efficiency of genistin family in roasted soy flour (pH4, heat treatment of enzyme no, reaction time 6 h): 13.4 | Decomposition efficiency of genistin family in roasted soy flour (pH4, heat treatment of enzyme yes, reaction time 6 h): 45.4 | Decomposition efficiency of genistin family in defatted soybean [1]: 1.8% | Decomposition efficiency of genistin family in soymilk [1]: 0.5% | Decomposition efficiency of genistin family in defatted soybean [2]: 1.0% | Decomposition efficiency of genistin family in soymilk [2]: not detected | Decomposition efficiency of genistin family in defatted soybean [3]: 0.6% | Decomposition efficiency of genistin family in soymilk [3]: not detected | Decomposition efficiency of genistin family in defatted soybean [4]: 0.4% | Decomposition efficiency of genistin family in soymilk [4]: not detected | Decomposition efficiency of genistin family in defatted soybean [5]: 1.3% | Decomposition efficiency of genistin family in soymilk [5]: 0.6% | Decomposition efficiency of genistin family in roasted soy flour (pH5, heat treatment of enzyme no, reaction time 0 h): 45.4 | Decomposition efficiency of genistin family in roasted soy flour (pH5, heat treatment of enzyme no, reaction time 1 h): 39.9 | Decomposition efficiency of genistin family in roasted soy flour (pH5, heat treatment of enzyme no, reaction time 3 h): 26.9 | Decomposition efficiency of genistin family in roasted soy flour (pH5, heat treatment of enzyme no, reaction time 6 h): 17.6 | Decomposition efficiency of genistin family in roasted soy flour (pH5, heat treatment of enzyme yes, reaction time 6 h): 42.0 | Decomposition efficiency of genistin family in concentrated soybean protein (pH5.1, heat treatment of enzyme: no, reaction time 0 h): 43.1% | Decomposition efficiency of genistin family in concentrated soybean protein (pH5.1, heat treatment of enzyme: no, reaction time 1 h): 45.2% | Decomposition efficiency of genistin family in concentrated soybean protein (pH5.1, heat treatment of enzyme: no, reaction time 3 h): 40.2% | Decomposition efficiency of genistin family in concentrated soybean protein (pH5.1, heat treatment of enzyme: no, reaction time 6 h): 35.6% | Decomposition efficiency of genistin family in concentrated soybean protein (pH5.1, heat treatment of enzyme: yes, reaction time 6 h): 42.4% | Decomposition efficiency of genistin family in defatted soybean (pH5.4, heat treatment of enzyme: no, reaction time 0 h): 1.8% | Decomposition efficiency of genistin family in defatted soybean (pH5.4, heat treatment of enzyme: no, reaction time 1 h): 0.5% | Decomposition efficiency of genistin family in defatted soybean (pH5.4, heat treatment of enzyme: no, reaction time 3 h): not detected | Decomposition efficiency of genistin family in defatted soybean (pH5.4, heat treatment of enzyme: no, reaction time 6 h): not detected | Decomposition efficiency of genistin family in defatted soybean (pH5.4, heat treatment of enzyme: yes, reaction time 6 h): not detected | Decomposition efficiency of genistin family in soymilk (pH6.2, heat treatment of enzyme: no, reaction time 0 h): 0.5% | Decomposition efficiency of genistin family in soymilk (pH6.2, heat treatment of enzyme: no, reaction time 1 h): not detected | Decomposition efficiency of genistin family in soymilk (pH6.2, heat treatment of enzyme: no, reaction time 3 h): not detected | Decomposition efficiency of genistin family in soymilk (pH6.2, heat treatment of enzyme: no, reaction time 6 h): not detected | Decomposition efficiency of genistin family in soymilk (pH6.2, heat treatment of enzyme: yes, reaction time 6 h): 0.6% | Decomposition efficiency of genistin family in roasted soy flour (pH6.5, heat treatment of enzyme no, reaction time 0 h): 45.8 | Decomposition efficiency of genistin family in roasted soy flour (pH6.5, heat treatment of enzyme no, reaction time 1 h): 45.3 | Decomposition efficiency of genistin family in roasted soy flour (pH6.5, heat treatment of enzyme no, reaction time 3 h): 38.8 | Decomposition efficiency of genistin family in roasted soy flour (pH6.5, heat treatment of enzyme no, reaction time 6 h): 34.0 | Decomposition efficiency of genistin family in roasted soy flour (pH6.5, heat treatment of enzyme yes, reaction time 6 h): 39.2 | Decomposition efficiency of genistin family in concentrated soybean protein [6]: 43.0% | Decomposition efficiency of genistin family in defatted soybean [6]: 1.7% | Decomposition efficiency of genistin family in concentrated soybean protein [7]: 43.6% | Decomposition efficiency of genistin family in defatted soybean [7]: 0.6% | Decomposition efficiency of genistin family in concentrated soybean protein [8]: 42.8% | Decomposition efficiency of genistin family in defatted soybean [8]: 0.3% | Decomposition efficiency of genistin family in concentrated soybean protein [9]: 41.0% | Decomposition efficiency of genistin family in defatted soybean [9]: 0.2% | Decomposition efficiency of genistin family in concentrated soybean protein [10]: 40.6% | Decomposition efficiency of genistin family in defatted soybean [10]: 0.2% | Decomposition efficiency of genistin family in soymilk (pH7.2, heat treatment of enzyme: no, reaction time 0 h): 0.7% | Decomposition efficiency of genistin family in soymilk (pH7.2, heat treatment of enzyme: no, reaction time 1 h): not detected | Decomposition efficiency of genistin family in soymilk (pH7.2, heat treatment of enzyme: no, reaction time 3 h): not detected | Decomposition efficiency of genistin family in soymilk (pH7.2, heat treatment of enzyme: no, reaction time 6 h): not detected | Decomposition efficiency of genistin family in soymilk (pH7.2, heat treatment of enzyme: yes, reaction time 6 h): 0.7% | Decomposition efficiency of genistin family in defatted soybean (pH7.8, heat treatment of enzyme: no, reaction time 0 h): 1.6% | Decomposition efficiency of genistin family in defatted soybean (pH7.8, heat treatment of enzyme: no, reaction time 1 h): 1.0% | Decomposition efficiency of genistin family in defatted soybean (pH7.8, heat treatment of enzyme: no, reaction time 3 h): 0.8% | Decomposition efficiency of genistin family in defatted soybean (pH7.8, heat treatment of enzyme: no, reaction time 6 h): 0.7% | Decomposition efficiency of genistin family in defatted soybean (pH7.8, heat treatment of enzyme: yes, reaction time 6 h): 0.6% | Decomposition efficiency of genistin family in roasted soy flour (pH8.5, heat treatment of enzyme no, reaction time 0 h): 39.5 | Decomposition efficiency of genistin family in roasted soy flour (pH8.5, heat treatment of enzyme no, reaction time 1 h): 39.5 | Decomposition efficiency of genistin family in roasted soy flour (pH8.5, heat treatment of enzyme no, reaction time 3 h): 39.2 | Decomposition efficiency of genistin family in roasted soy flour (pH8.5, heat treatment of enzyme no, reaction time 6 h): 37.3 | Decomposition efficiency of genistin family in roasted soy flour (pH8.5, heat treatment of enzyme yes, reaction time 6 h): 35.2 | Decomposition efficiency of genistin family in concentrated soybean protein (pH8.6, heat treatment of enzyme: no, reaction time 0 h): 39.7% | Decomposition efficiency of genistin family in concentrated soybean protein (pH8.6, heat treatment of enzyme: no, reaction time 1 h): 38.8% | Decomposition efficiency of genistin family in concentrated soybean protein (pH8.6, heat treatment of enzyme: no, reaction time 3 h): 39.0% | Decomposition efficiency of genistin family in concentrated soybean protein (pH8.6, heat treatment of enzyme: no, reaction time 6 h): 38.5% | Decomposition efficiency of genistin family in concentrated soybean protein (pH8.6, heat treatment of enzyme: yes, reaction time 6 h): 37.6% | Decomposition efficiency of genistin family in soymilk (pH11.6, heat treatment of enzyme: no, reaction time 0 h): 0.5% | Decomposition efficiency of genistin family in soymilk (pH11.6, heat treatment of enzyme: no, reaction time 1 h): not detected | Decomposition efficiency of genistin family in soymilk (pH11.6, heat treatment of enzyme: no, reaction time 3 h): not detected | Decomposition efficiency of genistin family in soymilk (pH11.6, heat treatment of enzyme: no, reaction time 6 h): not detected | Decomposition efficiency of genistin family in soymilk (pH11.6, heat treatment of enzyme: yes, reaction time 6 h): 0.9%
